Data taken from article PMC7058083, “Structural basis of ligand binding modes at the human formyl peptide receptor 2” (Nature Communications, 2020).
Residue numbers refer to the chain shown, from its start.

Legend:
Experiment in all cases: Saturation binding of WK(FITC)YMVm, flow cytometry on HEK293F cells
[1] = target: T1, wild-type (WT) and mutant FPR2 (Homo sapiens, UniProt P25090, L268A); conditions: FPR2 L268A
T1 construct: expressed in transfected cells; host or cells: HEK293F
T1 sequence (P25090 1-351 L268A): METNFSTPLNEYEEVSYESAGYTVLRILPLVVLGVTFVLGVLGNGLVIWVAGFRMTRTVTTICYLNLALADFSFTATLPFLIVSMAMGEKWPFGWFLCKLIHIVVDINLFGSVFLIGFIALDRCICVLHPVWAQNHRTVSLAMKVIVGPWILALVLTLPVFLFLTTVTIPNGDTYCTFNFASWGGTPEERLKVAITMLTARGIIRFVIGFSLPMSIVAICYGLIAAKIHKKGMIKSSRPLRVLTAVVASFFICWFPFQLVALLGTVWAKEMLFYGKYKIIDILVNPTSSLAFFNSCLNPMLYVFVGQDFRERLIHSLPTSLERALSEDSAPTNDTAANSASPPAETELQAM
Protocol: (§1) Flag-tagged wild-type and mutant FPR2s were cloned into the pTT5 vector and expressed in HEK293F cells. The cells were harvested, and washed with Hanks’ Balanced Salt Solution (HBSS) buffer supplemented with 0.5% bovine serum albumin and 20 mM HEPES, pH 7.4. The cells were then resuspended in the same buffer to the final concentration of 1 × 10^6 cells per ml. The cell-surface expression was measured as mentioned above. […] Mean fluorescent intensity of each well was then read by a FCM (flow cytometry) reader (Millipore). […] For competitive binding of fMLFK, cells were plated in 96-well plates (100,000 cells per well), and incubated with WK(FITC)YMVm at 4 °C for 1 h. The following concentrations of WK(FITC)YMVm were used: 10 nM (wild type, L81^2.60F, E89G, and V105^3.32A), 30 nM (D281^7.32G), 40 nM (H102^3.29F, V160^4.60A, L268^ECL3A, N285^7.36A, and F292^7.43A), and 100 nM (L164^4.64A and T177A). Then increasing concentrations of fMLFK (100 nM–1 mM) were added, and incubated for another 1 h on ice. Mean fluorescent intensity values were measured by flow cytometry. Data were analyzed using Prism 7.0.

[2] = target: T2, wild-type (WT) and mutant FPR2 (Homo sapiens, UniProt P25090, L164W); conditions: mutation L164W
T2 construct: expressed in transfected cells; host or cells: HEK293F
T2 sequence (P25090 whole entry L164W): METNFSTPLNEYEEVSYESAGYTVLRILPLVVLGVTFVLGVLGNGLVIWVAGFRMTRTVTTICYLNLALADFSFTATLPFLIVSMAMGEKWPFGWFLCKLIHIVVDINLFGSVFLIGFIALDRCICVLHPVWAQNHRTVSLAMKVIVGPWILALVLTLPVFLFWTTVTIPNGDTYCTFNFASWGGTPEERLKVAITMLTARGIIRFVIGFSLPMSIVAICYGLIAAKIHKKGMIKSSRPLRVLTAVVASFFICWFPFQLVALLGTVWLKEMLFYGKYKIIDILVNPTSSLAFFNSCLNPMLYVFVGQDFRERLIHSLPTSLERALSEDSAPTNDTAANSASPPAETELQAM
Protocol: as §1

[3] = target: T3, wild-type (WT) and mutant FPR2 (Homo sapiens, UniProt P25090, R201F); conditions: mutation R201F
T3 construct: expressed in transfected cells; host or cells: HEK293F
T3 sequence (P25090 whole entry R201F): as the sequence (P25090 whole entry L164W) above, with W164L, R201F counted along it
Protocol: as §1

[4] = target: T4, wild-type (WT) and mutant FPR2 (Homo sapiens, UniProt P25090, D281A); conditions: FPR2 D281A
T4 construct: expressed in transfected cells; host or cells: HEK293F
T4 sequence (P25090 whole entry D281A): as the sequence (P25090 whole entry L164W) above, with W164L, D281A counted along it
Protocol: as §1

[5] = target: T5, wild-type (WT) and mutant FPR2 (Homo sapiens, UniProt P25090, L164A); conditions: FPR2 L164A
T5 construct: expressed in transfected cells; host or cells: HEK293F
T5 sequence (P25090 1-351 L164A): T1 sequence (P25090 1-351 L268A) with L164A, A268L
Protocol: as §1

[6] = target: T6, wild-type (WT) and mutant FPR2 (Homo sapiens, UniProt P25090, D281L); conditions: FPR2 D281L
T6 construct: expressed in transfected cells; host or cells: HEK293F
T6 sequence (P25090 whole entry D281L): as the sequence (P25090 whole entry L164W) above, with W164L, D281L counted along it
Protocol: as §1

[7] = target: T7, wild-type (WT) and mutant FPR2 (Homo sapiens, UniProt P25090, E89G); conditions: FPR2 E89G
T7 construct: expressed in transfected cells; host or cells: HEK293F
T7 sequence (P25090 1-351 E89G): T1 sequence (P25090 1-351 L268A) with E89G, A268L
Protocol: as §1

[8] = target: T8, wild-type (WT) and mutant FPR2 (Homo sapiens, UniProt P25090, F257Y); conditions: FPR2 F257Y
T8 construct: expressed in transfected cells; host or cells: HEK293F
T8 sequence (P25090 whole entry F257Y): as the sequence (P25090 whole entry L164W) above, with W164L, F257Y counted along it
Protocol: as §1

[9] = target: T9, wild-type (WT) and mutant FPR2 (Homo sapiens, UniProt P25090, L198F); conditions: FPR2 L198F
T9 construct: expressed in transfected cells; host or cells: HEK293F
T9 sequence (P25090 whole entry L198F): as the sequence (P25090 whole entry L164W) above, with W164L, L198F counted along it
Protocol: as §1

[10] = target: T10, wild-type (WT) and mutant FPR2 (Homo sapiens, UniProt P25090, F292A); conditions: FPR2 F292A
T10 construct: expressed in transfected cells; host or cells: HEK293F
T10 sequence (P25090 1-351 F292A): T1 sequence (P25090 1-351 L268A) with A268L, F292A
Protocol: as §1

With CSCC[C@H](NC(=O)[C@H](Cc1ccc(O)cc1)NC(=O)[C@H](CCCCNC(=S)Nc1ccc2c(c1)C(=O)OC21c2ccc(O)cc2Oc2cc(O)ccc21)NC(=O)[C@@H](N)Cc1c[nH]c2ccccc12)C(=O)N[C@H](C(=O)N[C@H](CCSC)C(N)=O)C(C)C [WK(FITC)YMVm] the “Span (% of WT), saturation binding” value [1] was 76 ± 7 % of WT, the Kd ([1]; mean ± s.e.m., n=3, SEM) was 0.028 ± 0.01 µM and the “WK(FITC)YMVm binding” value [2] was “severely impaired”. The “WK(FITC)YMVm binding” value [3] was “substantially reduced”, the “Span (% of WT), saturation binding” value [4] was 42 ± 8 % of WT and the Kd ([4]; mean ± s.e.m., n=3, SEM) was 0.0486 ± 0.0176 µM. For the same compound, the “Span (% of WT), saturation binding” value [5] was 85 ± 13 % of WT, the Kd ([5]; mean ± s.e.m., n=3, SEM) was 0.0922 ± 0.0251 µM and the “Span (% of WT), saturation binding” value [6] was 39 ± 11 % of WT. For the same compound, the Kd ([6]; mean ± s.e.m., n=3, SEM) was 0.0576 ± 0.014 µM, the “Span (% of WT), saturation binding” value [7] was 134 ± 7 % of WT and the Kd ([7]; mean ± s.e.m., n=3, SEM) was 0.0293 ± 0.006 µM. The “Span (% of WT), saturation binding” value [8] was 57 ± 6 % of WT, the Kd ([8]; mean ± s.e.m., n=3, SEM) was 0.154 ± 0.048 µM and the “Span (% of WT), saturation binding” value [9] was 60 ± 9 % of WT. The Kd ([9]; mean ± s.e.m., n=3, SEM) was 0.0214 ± 0.0053 µM, the “Span (% of WT), saturation binding” value [10] was 54 ± 14 % of WT and the Kd ([10]; mean ± s.e.m., n=3, SEM) was 0.0425 ± 0.0147 µM.
